In patent US5228957A, “Separation of methyl T-butyl ether from close boiling C5 hydrocarbons by extractive distillation” (priority 1993, dated 1993):
Counter-ions that a name gives are not always drawn. Like-named read-outs stand apart in the source and are kept apart here.

Assays:
Type in all cases: physicochemical
[1] = Extractive distillation agent separating methyl t-butyl ether from n-pentane-cyclopentane mixtures (vapor-liquid equilibrium still)
[2] = Extractive distillation agent separating methyl t-butyl ether from 1-pentene (vapor-liquid equilibrium still)
[3] = Extractive distillation agent separating methyl t-butyl ether from cyclopentane (vapor-liquid equilibrium still); conditions: cyclopentane to methyl t-butyl ether, with agent
Source text: The data in Tables 2-6 was obtained in a vapor-liquid equilibrium still.

[4] = Relative volatility of methyl t-butyl ether from close boiling hydrocarbons, no agent (vapor-liquid equilibrium still); conditions: hydrocarbon to methyl t-butyl ether
Source text: I have discovered that certain organic compounds will effectively increase the relative volatility between methyl t-butyl ether and close boiling hydrocarbons when employed as the agent in extractive distillation. The data in Tables 2-6 was obtained in a vapor-liquid equilibrium still.

[5] = cyclopentane to methyl t-butyl ether, n-pentane-cyclopentane mixture, with agent
[6] = n-pentane to methyl t-butyl ether, n-pentane-cyclopentane mixture, with agent
[7] = 1-pentene to methyl t-butyl ether, with agent

SMILES | Relative Volatility CyP/MTBE [1, 5] | Relative Volatility Pnt/MTBE [1, 6] | also measured
COCC(C)OC(C)=O (stereo not shown) [1-Methoxy-2-propanol acetate] | 1.9 | 3.3 | Relative Volatility [2, 7]: 3.5
CN1CCCC1=O [1-Methyl-2-pyrrolidinone] | 1.8 | 3.9 | Relative Volatility [3]: 1.8
CCC[N+](=O)[O-] [1-Nitropropane] | 2.8 | 5.2 | –
C=CCCC [1-Pentene] | – | – | Relative Volatility [4]: 1.7; Relative Volatility ([4]; listed as 1-pentene): less than 1.7
CC(=O)CC(C)=O [2,4-Pentanedione] | 1.9 | 3.4 | –
CC(C)[N+](=O)[O-] [2-Nitropropane] | 2.2 | 3.8 | –
CC(=O)c1ccccc1 [Acetophenone] | 1.7 | 1.7 | Relative Volatility [3]: 1.6
C1CCCC1 [Cyclopentane] | – | – | Relative Volatility [4]: 1.55; Relative Volatility ([4]; listed as cyclopentane): less than 1.7
CCOC(=O)OCC [Diethyl carbonate] | 1.8 | 3.1 | –
CCOC(=O)/C=C\C(=O)OCC [Diethyl maleate] | 1.8 | 3.4 | –
CCOC(=O)CC(=O)OCC [Diethyl malonate] | 2.0 | 3.7 | Relative Volatility [2, 7]: 3.1
CC(C)CC(=O)CC(C)C [Diisobutyl ketone] | 1.5 | 2.5 | –
CN(C)C=O [Dimethylformamide] | – | – | Relative Volatility CyP/MTBE [1]: 2.3; Relative Volatility Pnt/MTBE [1]: 4.7; Relative Volatility [2]: 3.0; Relative Volatility [3]: 2.0
C[S+](C)[O-] [Dimethylsulfoxide] | 2.7 | 2.8 | Relative Volatility [2, 7]: 3.9; Relative Volatility [3]: 1.8
CCOC(C)=O [Ethyl acetate] | 1.8 | 2.9 | –
CCOC(=O)CC(C)=O [Ethyl acetoacetate] | 1.9 | 4.2 | –

SMILES | Relative Volatility CyP/MTBE [1, 5] | Relative Volatility Pnt/MTBE [1, 6] | also measured
CCOC(=O)CC(C)C [Ethyl isovalerate] | 1.5 | 2.5 | –
CC(=O)OCCOC(C)=O [Ethylene glycol diacetate] | 1.8 | 3.3 | Relative Volatility [2, 7]: 5.5
COCCO [Ethylene glycol methyl ether] | – | – | Relative Volatility [2]: 3.6
CC1=CC(=O)CC(C)(C)C1 [Isophorone] | 1.5 | 2.8 | –
CC(=O)OC(C)C [Isopropyl acetate] | 1.8 | 3.1 | –
CC(=O)CCC(C)C [Methyl isoamyl ketone] | 1.7 | 2.8 | Relative Volatility [2, 7]: 2.6
COC(=O)c1ccccc1O [Methyl salicylate] | 1.6 | 1.9 | –
CC[N+](=O)[O-] [Nitroethane] | – | – | Relative Volatility CyP/MTBE [1]: 2.9; Relative Volatility Pnt/MTBE [1]: 5.2; Relative Volatility [2]: 3.0
C[N+](=O)[O-] [Nitromethane] | – | – | Relative Volatility CyP/MTBE [1]: 1.6; Relative Volatility Pnt/MTBE [1]: 1.5
CC(O)COc1ccccc1 (stereo not shown) [Propylene glycol phenyl ether] | 2.0 | 4.2 | Relative Volatility [2, 7]: 3.2
O=S1(=O)CCCC1 [Sulfolane] | 3.6 | 2.4 | Relative Volatility [2]: 4.4; Relative Volatility [3]: 3.6
CC(=O)OCC(COC(C)=O)OC(C)=O [Triacetin] | 1.9 | 3.6 | –
CCCCCCOC=O [n-Hexyl formate] | 1.6 | 1.6 | –
CCCCC [n-Pentane] | – | – | Relative Volatility [4]: 1.6; Relative Volatility ([4]; listed as n-pentane): less than 1.7
CCCOC(C)=O [n-Propyl acetate] | 1.8 | 2.6 | –
CC(C)(C)O [t-Butanol] | – | – | Relative Volatility [3]: 2.2
